Source: patent US9210928B2, “Plant development control composition” (Syngenta Crop Protection, LLC, priority 2008, dated 2015)

Columns and labels:
[1] = tested on: excised Arabidopsis nodes; experiment: Axillary bud outgrowth assay in Arabidopsis stem sections; format: in vivo; conditions: 100 μM inhibitor, 1 μM NAA; Col-0; FIG. 5
Method: Axillary bud outgrowth assay in Arabidopsis stein sections—The assays were performed essentially as described (40) with the following modifications. Small Petri dishes (50 mm diameter, 20 mm depth) were filled with 10 ml of ATS (39) supplemented with 1% agar and 1% sucrose. Inhibitors and α-naphthalene acetic acid (NAA) were added to the agar before pouring to give 100 μM and 1 μM, respectively. Thus, when the central strip was cut out of the agar, both the apical and basal media contained both NAA and inhibitor. Any nodes in which the apical end had curled out of the media or which bud length was less than 2 mm at the end of the experiment were discounted. Measurement of the shoot length was performed every 24 hours. For each assay a logistic curve was fitted using Genstat (10th edition, VSN international) with the fitcurve directive and the lag phase was calculated by extrapolating the linear part of the curve and the initial plateau (see supplementary methods). The x value of where these two lines intersected represented the lag phase.
A logistic curve, y=A+C/(1+e^−B(t−m)), was fitted to the data for each shoot using GenStat (10th edition). The lag phase was then calculated using the equation m−(2/B) which effectively gave the t value (time) of the intercept of the two extrapolated lines from the linear part of the curve and the initial plateau.
Stimulation of shoot branching in Arabidopsis stem sections by application of inhibitor—Auxin inhibits the outgrowth of axillary buds in wild-type Arabidopsis plants. In the AtCCD7 and AtCCD8 null mutants (max3 and max4, respectively) the response to auxin is reduced, presumably due to a block in formation of an apocarotenoid hormone (recently shown (17,18) to be strigolactone or a related compound) that suppresses branching (19), and axillary buds extend earlier, leading to formation of side branches. An in vitro assay was previously developed in which the growth of axillary buds from isolated sections of Arabidopsis stem was used to assess max mutants (40). […]

whole Arabidopsis plants = experiment: Shoot branching in whole Arabidopsis plants grown in agar; format: in vivo; conditions: applied to whole plants
Method: Branching phenotypes of Arabidopsis plants grown in agar media for 45 days supplemented with inhibitor D6. Images are shown: (a) Col-0 (WT) without inhibitor; (b) max3-9 mutant without inhibitor; (c) Col-0 with 100 μM D6. The numbers (d) of rosette branches were quantified. Error bars represent standard error of the mean, n=6 to 12.
Stimulation of shoot branching in whole Arabidopsis plants—Inhibitors were also applied to Arabidopsis whole plants grown under sterile conditions in agar. […] Inhibitor treated plants were intermediate (mean of approximately 2 branches) and so partially mimicked max3-9 (FIG. 6d).

Structure (SMILES): COc1ccc(C(=O)N(O)Cc2ccc(F)cc2)cc1 [Compound F2, N-(4-fluorobenzyl)-4-methoxybenzoyl hydroxamic acid]
- effect on timing of bud outgrowth (in words) [1]: relatively small activity
- unintended effects on whole Arabidopsis plants (whole Arabidopsis plants): caused bleaching of leaves

Structure (SMILES): COc1ccc(C(=O)N(O)Cc2ccccc2)cc1 [Compound F1, N-benzyl-4-methoxybenzoyl hydroxamic acid]
- effect on timing of bud outgrowth (in words) [1]: relatively small activity
- unintended effects on whole Arabidopsis plants (whole Arabidopsis plants): caused bleaching of leaves
